Patent US10954306B2 (priority 2015, dated 2021)
Where no end group is shown, it is not given here.

Experiments:
[1] = test system: antibody (polyclonal anti-T14); test: ELISA motif determination with linear peptide variants; assay type: binding, rabbit; details: 100 nM peptide, FIGS. 5-10
Experimental: The standard curves and the samples were run in triplicate. For the detection of T14, Pep4, T15 and amyloid, 8 nanomolar concentrations of each were used for the ELISA. On the other hand, for the motif determination experiment, only one concentration of each of the peptide variants was used of 100 nM. For the detection of T14 on rat brain samples, different dilutions of the protein were used. […] The standard curve for determination of T14 peptide in brain tissue and the brain tissue samples were diluted in PBS buffer. The standard curves ranged from 8 to 100 nM of T14. Briefly, 96-well immunoplates (NUNC) were coated with 100 μl/well of sample or standard T14, covered with parafilm and incubated overnight at 4° C. The following day the sample was removed by flicking the plate over a sink with running water, and 200 μl of the blocking solution containing 2% Bovine Serum Albumin (BSA) in Tris-Buffered Saline and Tween 20 (TBS-T) was added and incubated for 4 h at room temperature. Blocking solution was then removed and 100 μl of antibody, diluted in blocking solution to 1 μg/ml, was added and incubated overnight at 4° C. The primary antibody was removed the next day and wells were washed 3 times with 200 μl of TBS-T. After, 100 μl of secondary antibody diluted in blocking solution to […] was added and incubated for 2 h at room temperature; the plate was covered with parafilm during all incubations. After 2 h, the plate was washed 4 times with TBS-T. The addition of 3,3,5,5-tetramethylbenzidine started the colour reaction.
The inventors investigate the immunospecificity of the antibody of the invention by carrying out binding experiments with a series of different linear peptides.

[2] = T14 aggregation by WB and ELISA; assay type: physicochemical; details: 200 μM, neutralised PBS, 0-4 hours at 25° C.
Experimental: Exogenous T14 stock solution (20 mM) solution was created by resuspension in distilled water. Subsequently, stock solution was diluted to a working stock solution (400 μM) with PBS (pH 10.5). Aggregation was initiated by neutralising the working stock solution by adding PBS (pH 5) to create a final concentration of 200 μM, which was incubated for 0, 1, 2, 3, 4 hours at 25° C. Moreover, T14 monomer control was created by diluting the working stock with PBS (pH 10.5) to 200 μM and incubating at 25° C. for 4 hours. A further no peptide control was created by mixing together pH 5 and pH 10.5 PBS and incubating at 25° C. for 4 hours. WB (A) and ELISA (B) were then conducted on the above T14 aggregation samples and quantified;

α7 nicotinic-receptor = α7 nicotinic-receptor (Homo sapiens, UniProt P36544); details: cited from earlier work
Sequence of α7 nicotinic-receptor (P36544 23-502): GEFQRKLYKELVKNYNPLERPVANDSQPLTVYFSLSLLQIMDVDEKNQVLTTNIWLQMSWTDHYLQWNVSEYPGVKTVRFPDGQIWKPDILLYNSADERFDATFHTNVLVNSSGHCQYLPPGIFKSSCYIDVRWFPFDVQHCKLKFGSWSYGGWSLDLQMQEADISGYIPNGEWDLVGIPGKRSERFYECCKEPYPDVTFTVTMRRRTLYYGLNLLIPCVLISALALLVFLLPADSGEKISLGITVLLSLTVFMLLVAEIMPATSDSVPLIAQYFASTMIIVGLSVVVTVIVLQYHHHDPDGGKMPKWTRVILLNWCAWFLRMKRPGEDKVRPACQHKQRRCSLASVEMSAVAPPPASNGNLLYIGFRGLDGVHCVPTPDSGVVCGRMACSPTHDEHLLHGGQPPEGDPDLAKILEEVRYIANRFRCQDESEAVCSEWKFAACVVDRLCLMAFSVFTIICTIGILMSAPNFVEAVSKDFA

rat brain slices = details: cited from earlier work
[3] = test system: compensatory AChE release; details: cited from earlier work

EFHRWSSYMVHWK [Peptide 1305]
recognition of the peptide by the antibody (ELISA) [1]: strongly binds

AEFHRWSSYMVHWK [Peptide T14]
recognition of the peptide by the antibody (ELISA) [1]: strongly binds
T14 aggregation [2]: grows exponentially
T14 monomer pool [2]: remains unchanged

FHRWSSYMVHWK [Peptide 1206]
recognition of the peptide by the antibody (ELISA) [1]: strongly binds

HRWSSYMVHWK [Peptide 1107]
recognition of the peptide by the antibody (ELISA) [1]: strongly binds

NBP14 (AEFHRWSSYMVHWK; not fully specified)
protection of cells from linear T14, T30 and β-amyloid toxicity (α7 nicotinic-receptor): protect cells
effect on Ca2+ concentrations (rat brain slices; given alone): no significant effect
effect on Ca2+ concentrations in presence of T30 (rat brain slices; with T30): blocks the effects of T30
compensatory AChE release induced by the toxicity of linear T14 and T30 [3]: blocks
